Results taken from article PMC5218480 (PLoS ONE, 2017).

Test system: MV-4-11 cells
Experiment: Gene expression microarray analysis (Affymetrix PrimeView) and GSEA
Type: cell-based, human
Set-up: RFU PODN (11730768_x_at) / Fold change /veh PODN (11730768_x_at) / RFU LINC00158 (11744669_a_at) / Fold change /veh LINC00158 (11744669_a_at) / RFU DUSP10 (11751237_a_at) / Fold change /veh DUSP10 (11751237_a_at) / RFU ID3 (11757404_x_at) / Fold change /veh ID3 (11757404_x_at) / RFU PLEKHG5 (11737974_s_at) / Fold change /veh PLEKHG5 (11737974_s_at) / RFU LRRC4B (11730491_at) / Fold change /veh LRRC4B (11730491_at) / RFU GIMAP4 (11747438_a_at) / Fold change /veh GIMAP4 (11747438_a_at) / RFU KRT8 (11758183_x_at) / Fold change /veh KRT8 (11758183_x_at) / RFU CNN1 (11734310_a_at) / Fold change /veh CNN1 (11734310_a_at) / RFU VPS37D (11726825_at) / Fold change /veh VPS37D (11726825_at) / RFU C10orf10 (11716522_x_at) / Fold change /veh C10orf10 (11716522_x_at) / RFU KIR2DL2 /// KIR2DL4 /// KIR2DL5A /// KIR2DL5B /// KIR2DS1 /// KIR2DS2 /// KIR2DS3 /// KIR2DS4 /// KIR3DL3 /// KIR3DL3 /// KIR3DS1 (11738374_at) / Fold change /veh KIR2DL2 /// KIR2DL4 /// KIR2DL5A /// KIR2DL5B /// KIR2DS1 /// KIR2DS2 /// KIR2DS3 /// KIR2DS4 /// KIR3DL3 /// KIR3DL3 /// KIR3DS1 (11738374_at) / RFU C1QL1 (11718748_at) / Fold change /veh C1QL1 (11718748_at) / RFU TMPRSS4 (11747572_a_at) / Fold change /veh TMPRSS4 (11747572_a_at) / RFU HAMP (11756126_x_at) / Fold change /veh HAMP (11756126_x_at) / RFU RNFT2 (11725882_a_at) / Fold change /veh RNFT2 (11725882_a_at) / RFU NR4A2 (11747474_a_at) / Fold change /veh NR4A2 (11747474_a_at) / RFU ABCC12 (11746883_a_at) / Fold change /veh ABCC12 (11746883_a_at) / RFU TMEM136 (11760407_x_at) / Fold change /veh TMEM136 (11760407_x_at) / RFU CLDN22 /// WWC2 (11732394_at) / Fold change /veh CLDN22 /// WWC2 (11732394_at) / RFU HLA-DPB1 (11760878_x_at) / Fold change /veh HLA-DPB1 (11760878_x_at) / RFU SPINT1 (11716480_a_at) / Fold change /veh SPINT1 (11716480_a_at) / RFU GAP43 (11754022_s_at) / Fold change /veh GAP43 (11754022_s_at) / RFU A4GNT (11735810_at) / Fold change /veh A4GNT (11735810_at) / RFU PRB3 (11715151_x_at) / Fold change /veh PRB3 (11715151_x_at) / RFU TUBB4B (11761932_at) / Fold change /veh TUBB4B (11761932_at) / RFU CAPN14 (11732068_a_at) / Fold change /veh CAPN14 (11732068_a_at) / RFU TMCC2 (11721928_a_at) / Fold change /veh TMCC2 (11721928_a_at) / RFU IRGQ (11745062_a_at) / Fold change /veh IRGQ (11745062_a_at) / RFU FAM174B (11720279_a_at) / Fold change /veh FAM174B (11720279_a_at) / RFU TMPRSS4 (11748680_a_at) / Fold change /veh TMPRSS4 (11748680_a_at) / RFU FAM212B (11763350_a_at) / Fold change /veh FAM212B (11763350_a_at) / RFU PLEKHG5 (11743358_a_at) / Fold change /veh PLEKHG5 (11743358_a_at) / RFU ZSCAN30 (11745921_a_at) / Fold change /veh ZSCAN30 (11745921_a_at) / RFU CMKLR1 (11741424_a_at) / Fold change /veh CMKLR1 (11741424_a_at) / RFU LOC101060620 /// MAPK8IP1 (11723275_at) / Fold change /veh LOC101060620 /// MAPK8IP1 (11723275_at) / RFU SPTSSB (11747773_x_at) / Fold change /veh SPTSSB (11747773_x_at) / RFU PRSS12 (11739890_at) / Fold change /veh PRSS12 (11739890_at) / RFU BIN1 (11741810_x_at) / Fold change /veh BIN1 (11741810_x_at) / RFU WNT11 (11732464_a_at) / Fold change /veh WNT11 (11732464_a_at) / RFU C10orf10 (11716521_a_at) / Fold change /veh C10orf10 (11716521_a_at) / RFU C5orf56 (11738089_at) / Fold change /veh C5orf56 (11738089_at) / RFU CYB561 (11721691_x_at) / Fold change /veh CYB561 (11721691_x_at) / RFU ANKRD19P (11752326_a_at) / Fold change /veh ANKRD19P (11752326_a_at) / RFU OR2T12 /// OR2T33 /// OR2T8 (11738714_s_at) / Fold change /veh OR2T12 /// OR2T33 /// OR2T8 (11738714_s_at) / RFU VCAN (11748164_a_at) / Fold change /veh VCAN (11748164_a_at) / RFU JSRP1 (11732532_at) / Fold change /veh JSRP1 (11732532_at) / RFU KRTAP10-11 (11738290_x_at) / Fold change /veh KRTAP10-11 (11738290_x_at) / RFU MYO3A (11730013_a_at) / Fold change /veh MYO3A (11730013_a_at) / RFU EBF3 (11725865_a_at) / Fold change /veh EBF3 (11725865_a_at) / RFU CAMK2N1 (11719241_x_at) / Fold change /veh CAMK2N1 (11719241_x_at) / RFU C5orf56 (11738088_a_at) / Fold change /veh C5orf56 (11738088_a_at) / RFU OLFML3 (11715873_a_at) / Fold change /veh OLFML3 (11715873_a_at) / RFU LOC100653217 /// NTM (11731650_a_at) / Fold change /veh LOC100653217 /// NTM (11731650_a_at) / RFU MAPK11 (11762145_a_at) / Fold change /veh MAPK11 (11762145_a_at) / RFU FIZ1 (11724087_x_at) / Fold change /veh FIZ1 (11724087_x_at) / RFU OASL (11726364_x_at) / Fold change /veh OASL (11726364_x_at) / RFU SOX15 (11748057_x_at) / Fold change /veh SOX15 (11748057_x_at) / RFU CD79A (11719716_a_at) / Fold change /veh CD79A (11719716_a_at) / RFU HIST1H1D (11736915_at) / Fold change /veh HIST1H1D (11736915_at) / RFU CASKIN2 (11723855_a_at) / Fold change /veh CASKIN2 (11723855_a_at) / RFU LOC730098 (11760151_x_at) / Fold change /veh LOC730098 (11760151_x_at) / RFU OR4N2 (11742367_at) / Fold change /veh OR4N2 (11742367_at) / RFU PRRT2 (11749266_a_at) / Fold change /veh PRRT2 (11749266_a_at) / RFU SNX32 (11753110_a_at) / Fold change /veh SNX32 (11753110_a_at) / RFU CDHR5 (11726645_a_at) / Fold change /veh CDHR5 (11726645_a_at) / RFU RCAN1 (11760418_a_at) / Fold change /veh RCAN1 (11760418_a_at) / RFU FAM167A (11723789_a_at) / Fold change /veh FAM167A (11723789_a_at) / RFU FAM26E (11764081_at) / Fold change /veh FAM26E (11764081_at) / RFU ISYNA1 (11749810_s_at) / Fold change /veh ISYNA1 (11749810_s_at) / RFU ACY1 (11761880_at) / Fold change /veh ACY1 (11761880_at) / RFU 11764098_at / Fold change /veh 11764098_at / RFU SAMD14 (11745864_x_at) / Fold change /veh SAMD14 (11745864_x_at) / RFU NPB (11741838_a_at) / Fold change /veh NPB (11741838_a_at) / RFU TMPRSS6 (11731388_a_at) / Fold change /veh TMPRSS6 (11731388_a_at) / RFU KRTAP10-2 (11738614_at) / Fold change /veh KRTAP10-2 (11738614_at) / RFU ARHGAP8 /// PRR5-ARHGAP8 (11727945_x_at) / Fold change /veh ARHGAP8 /// PRR5-ARHGAP8 (11727945_x_at) / RFU KRTAP5-7 /// NADSYN1 (11734609_at) / Fold change /veh KRTAP5-7 /// NADSYN1 (11734609_at) / RFU RASL12 (11751679_a_at) / Fold change /veh RASL12 (11751679_a_at) / RFU CDKN2B (11736163_a_at) / Fold change /veh CDKN2B (11736163_a_at) / RFU PRF1 (11729649_at) / Fold change /veh PRF1 (11729649_at) / RFU, ZNF638 /// ZNF638-IT1 / Fold change vs veh, ZNF638 /// ZNF638-IT1 / RFU, PANK3 / Fold change vs veh, PANK3 / RFU, SH3YL1 / Fold change vs veh, SH3YL1 / RFU, ZEB2 / Fold change vs veh, ZEB2 / RFU, NRIP1 / Fold change vs veh, NRIP1 / RFU, PTTG1IP / Fold change vs veh, PTTG1IP / RFU, CAPN2 / Fold change vs veh, CAPN2 / RFU, MED14 / Fold change vs veh, MED14 / RFU, SNORA58 / Fold change vs veh, SNORA58 / RFU, C1orf63 / Fold change vs veh, C1orf63 / RFU, LRRFIP1 / Fold change vs veh, LRRFIP1 / RFU, NDUFAF7 / Fold change vs veh, NDUFAF7 / RFU, SLC12A2 / Fold change vs veh, SLC12A2 / RFU, IBTK / Fold change vs veh, IBTK / RFU, ESF1 / Fold change vs veh, ESF1 / Fold change vs veh, TMEM50B / RFU, TAOK1 / Fold change vs veh, TAOK1 / RFU, ACBD3 / Fold change vs veh, ACBD3 / RFU, TMA16 / Fold change vs veh, TMA16 / RFU, RWDD3 / Fold change vs veh, RWDD3 / RFU, BCAT1 / Fold change vs veh, BCAT1 / RFU, EDEM3 / Fold change vs veh, EDEM3 / RFU, TMEM33 / Fold change vs veh, TMEM33 / RFU, WDR75 / Fold change vs veh, WDR75 / RFU, AHCTF1 / Fold change vs veh, AHCTF1 / RFU, TFRC / Fold change vs veh, TFRC / RFU, ZDHHC17 / Fold change vs veh, ZDHHC17 / RFU, NOM1 / Fold change vs veh, NOM1 / RFU, ARL8B / Fold change vs veh, ARL8B / RFU, ZBTB11 / Fold change vs veh, ZBTB11 / RFU, TAMM41 / Fold change vs veh, TAMM41 / RFU, KIAA1704 /// LOC100996395 / Fold change vs veh, KIAA1704 /// LOC100996395 / RFU, ING1 / Fold change vs veh, ING1 / RFU, TRMT61B / Fold change vs veh, TRMT61B / RFU, FUBP3 / Fold change vs veh, FUBP3 / RFU, TP53 / Fold change vs veh, TP53 / RFU, TNKS2 / Fold change vs veh, TNKS2 / RFU, ZFP14 / Fold change vs veh, ZFP14 / RFU, ACTR2 / Fold change vs veh, ACTR2 / RFU, PPP3R1 / Fold change vs veh, PPP3R1 / RFU, PIK3R1 / Fold change vs veh, PIK3R1 / RFU, HNRNPA1 / Fold change vs veh, HNRNPA1 / RFU, RNF170 / Fold change vs veh, RNF170 / RFU, ZNF28 / Fold change vs veh, ZNF28 / RFU, RNGTT / Fold change vs veh, RNGTT / RFU, OGT / Fold change vs veh, OGT / RFU, BRD1 / Fold change vs veh, BRD1 / RFU, MARS / Fold change vs veh, MARS / RFU, ZNF655 / Fold change vs veh, ZNF655 / RFU, FAHD1 / Fold change vs veh, FAHD1 / RFU, BDP1 / Fold change vs veh, BDP1 / RFU, LRRCC1 / Fold change vs veh, LRRCC1 / RFU, ARID1A / Fold change vs veh, ARID1A / RFU, ZNF146 / Fold change vs veh, ZNF146 / RFU, ZNF330 / Fold change vs veh, ZNF330 / RFU, GPN3 / Fold change vs veh, GPN3 / RFU, C9orf123 / Fold change vs veh, C9orf123 / RFU, N4BP2L2 / Fold change vs veh, N4BP2L2 / RFU, ARFIP1 / Fold change vs veh, ARFIP1 / RFU, FAM179B / Fold change vs veh, FAM179B / RFU, BCL10 / Fold change vs veh, BCL10 / RFU, UHRF1BP1L / Fold change vs veh, UHRF1BP1L / RFU, BET1 / Fold change vs veh, BET1 / RFU, CNOT2 / Fold change vs veh, CNOT2 / RFU, ZNF268 / Fold change vs veh, ZNF268 / Fold change vs veh, ZNF507 / RFU, DGCR2 / Fold change vs veh, DGCR2 / RFU, WDSUB1 / Fold change vs veh, WDSUB1 / Fold change vs veh, HSP90B1 /// MIR3652 / RFU, ADSS / Fold change vs veh, ADSS / RFU, GK / Fold change vs veh, GK / RFU, ZNF148 / Fold change vs veh, ZNF148 / RFU, TAF9 / Fold change vs veh, TAF9 / RFU, SLC1A5 / Fold change vs veh, SLC1A5 / RFU, SLMO2 / Fold change vs veh, SLMO2 / RFU, ABCC4 / Fold change vs veh, ABCC4 / RFU, LOC101060439 /// RAP1B / Fold change vs veh, LOC101060439 /// RAP1B / RFU, RFX7 / Fold change vs veh, RFX7 / RFU, GTPBP10 / Fold change vs veh, GTPBP10 / RFU, CNEP1R1 / Fold change vs veh, CNEP1R1 / RFU, BIVM-ERCC5 /// ERCC5 / Fold change vs veh, BIVM-ERCC5 /// ERCC5 / RFU, ILF3 / Fold change vs veh, ILF3 / RFU 11762660_at / Fold change /veh 11762660_at / RFU VCAN (11757783_s_at) / Fold change /veh VCAN (11757783_s_at) / RFU DDX43 (11728927_at) / Fold change /veh DDX43 (11728927_at) / RFU KRT8 (11758188_x_at) / Fold change /veh KRT8 (11758188_x_at) / RFU NKD1 (11759106_at) / Fold change /veh NKD1 (11759106_at) / RFU SRD5A1 (11742802_a_at) / Fold change /veh SRD5A1 (11742802_a_at) / RFU TPSAB1 /// TPSB2 (11721975_s_at) / Fold change /veh TPSAB1 /// TPSB2 (11721975_s_at) / RFU GSTM3 (11746129_a_at) / Fold change /veh GSTM3 (11746129_a_at) / RFU IL23R (11737362_x_at) / Fold change /veh IL23R (11737362_x_at) / RFU TMEM51 (11727254_a_at) / Fold change /veh TMEM51 (11727254_a_at) / RFU PIWIL2 (11732686_x_at) / Fold change /veh PIWIL2 (11732686_x_at) / RFU ORM1 (11744905_x_at) / Fold change /veh ORM1 (11744905_x_at) / RFU CCDC152 (11743942_at) / Fold change /veh CCDC152 (11743942_at) / RFU ECM1 (11717891_a_at) / Fold change /veh ECM1 (11717891_a_at) / RFU IL23R (11748794_a_at) / Fold change /veh IL23R (11748794_a_at) / RFU TNFAIP8L3 (11732012_x_at) / Fold change /veh TNFAIP8L3 (11732012_x_at) / RFU MBOAT4 (11741988_at) / Fold change /veh MBOAT4 (11741988_at) / RFU 11764193_at / Fold change /veh 11764193_at / RFU TMEM53 (11763286_at) / Fold change /veh TMEM53 (11763286_at) / RFU MAGEB2 (11727129_at) / Fold change /veh MAGEB2 (11727129_at) / RFU TMEM200A (11744735_a_at) / Fold change /veh TMEM200A (11744735_a_at) / RFU CCDC152 (11751479_a_at) / Fold change /veh CCDC152 (11751479_a_at) / RFU FAM211A (11726209_a_at) / Fold change /veh FAM211A (11726209_a_at) / RFU RGS16 (11746705_a_at) / Fold change /veh RGS16 (11746705_a_at) / RFU VCAN (11755009_s_at) / Fold change /veh VCAN (11755009_s_at) / RFU RHOB (11743442_s_at) / Fold change /veh RHOB (11743442_s_at) / RFU RGS16 (11720943_a_at) / Fold change /veh RGS16 (11720943_a_at) / RFU RGS16 (11720944_at) / Fold change /veh RGS16 (11720944_at) / RFU, VPS4B / Fold change vs veh, VPS4B / RFU, CREB1 / Fold change vs veh, CREB1 / RFU, DNAJC13 / Fold change vs veh, DNAJC13 / RFU, GNAQ / Fold change vs veh, GNAQ / RFU, CDK5R1 / Fold change vs veh, CDK5R1 / RFU, ZRANB3 / Fold change vs veh, ZRANB3 / RFU, CUL4A / Fold change vs veh, CUL4A / RFU, CCNY / Fold change vs veh, CCNY / RFU, UFL1 / Fold change vs veh, UFL1 / RFU, COG3 / Fold change vs veh, COG3 / RFU, DIAPH2 / Fold change vs veh, DIAPH2 / RFU, SKA2 / Fold change vs veh, SKA2 / RFU, AFF3 / Fold change vs veh, AFF3 / RFU, LMF1 / Fold change vs veh, LMF1 / RFU, IPO11 / Fold change vs veh, IPO11 / RFU, DFFB / Fold change vs veh, DFFB / RFU, FOXP1 / Fold change vs veh, FOXP1 / RFU, CARD8 / Fold change vs veh, CARD8 / RFU, STRN3 / Fold change vs veh, STRN3 / RFU, ADK / Fold change vs veh, ADK / RFU, RASSF2 / Fold change vs veh, RASSF2 / RFU, WIPF1 / Fold change vs veh, WIPF1 / RFU, LARP1B / Fold change vs veh, LARP1B / RFU, RASA1 / Fold change vs veh, RASA1 / RFU, RB1 / Fold change vs veh, RB1 / RFU, PPFIA1 / Fold change vs veh, PPFIA1 / RFU, MAT2A / Fold change vs veh, MAT2A / RFU, CCT5 / Fold change vs veh, CCT5 / RFU, WDR92 / Fold change vs veh, WDR92 / RFU, CUX1 / Fold change vs veh, CUX1 / RFU, TTC7A / Fold change vs veh, TTC7A / RFU, TMEM135 / Fold change vs veh, TMEM135 / RFU, DEPTOR / Fold change vs veh, DEPTOR / RFU, CPM / Fold change vs veh, CPM / RFU, DNAJB6 / Fold change vs veh, DNAJB6 / RFU, CACNA2D3 / Fold change vs veh, CACNA2D3 / RFU, DTX4 / Fold change vs veh, DTX4 / RFU, TFCP2 / Fold change vs veh, TFCP2 / RFU, GMCL1 /// GMCL1P1 / Fold change vs veh, GMCL1 /// GMCL1P1 / RFU, AEBP2 / Fold change vs veh, AEBP2 / RFU, SNHG1 /// SNORD22 /// SNORD25 /// SNORD26 /// SNORD27 /// SNORD28 /// SNORD29 /// SNORD31 / Fold change vs veh, SNHG1 /// SNORD22 /// SNORD25 /// SNORD26 /// SNORD27 /// SNORD28 /// SNORD29 /// SNORD31 / Fold change (Aza/veh), C12orf56 (ProbeSet 11735607_a_at) / Fold change (ACY-1035/veh), C12orf56 (ProbeSet 11735607_a_at) / Fold change (Aza/veh), FGFR1OP (ProbeSet 11751329_s_at) / Fold change (ACY-1035/veh), FGFR1OP (ProbeSet 11751329_s_at) / Fold change (Aza/veh), VPS36 (ProbeSet 11739960_a_at) / Fold change (ACY-1035/veh), VPS36 (ProbeSet 11739960_a_at) / RFU SYPL1 (11715823_x_at) / Fold change /veh SYPL1 (11715823_x_at) / RFU IGFBP7 (11715501_s_at) / Fold change /veh IGFBP7 (11715501_s_at) / RFU REEP3 (11722064_at) / Fold change /veh REEP3 (11722064_at) / RFU IGLL1 (11728026_x_at) / Fold change /veh IGLL1 (11728026_x_at): dose or concentration left out as unconfirmed
Conditions: ProbeSet 11724526_at; LIST B

## Nc1ncn([C@@H]2O[C@H](CO)[C@@H](O)[C@H]2O)c(=O)n1 [azacitidine]
  RFU, FAHD1: 119.69 RFU
